Read-outs that look alike come from different tables or passages of the source.
Type: in vivo, Japanese patients
Conditions: 15 mg QD (n = 3)

## COc1cc2ncnc(Nc3ccc(F)c(Cl)c3)c2cc1NC(=O)/C=C/CN1CCCCC1 [dacomitinib, Dacomitinib]
All
  Alanine aminotransferase increased, number of patients with treatment-related AE: 0
  Aspartate aminotransferase increased, number of patients with treatment-related AE: 0
  Blood bilirubin increased, number of patients with treatment-related AE: 0
  Cheilitis, number of patients with treatment-related AE: 2
  Conjunctivitis, number of patients with treatment-related AE: 0
  Decreased appetite, number of patients with treatment-related AE: 0
  Diarrhea, number of patients with treatment-related AE: 2
  Dry skin, number of patients with treatment-related AE: 2
  ECG QT prolonged, number of patients with treatment-related AE: 2
  Edema, number of patients with treatment-related AE: 0
  Fatigue, number of patients with treatment-related AE: 0
  Hematuria, number of patients with treatment-related AE: 0
  Hypertrichosis, number of patients with treatment-related AE: 0
  Leukopenia, number of patients with treatment-related AE: 0
  Nausea, number of patients with treatment-related AE: 0
  Palmar–plantar erythrodysesthesia, number of patients with treatment-related AE: 1
  Paronychia, number of patients with treatment-related AE: 1
  Proteinuria, number of patients with treatment-related AE: 0
  Rash, number of patients with treatment-related AE: 3
  Skin fissures, number of patients with treatment-related AE: 0
  Stomatitis, number of patients with treatment-related AE: 1
  Weight decreased, number of patients with treatment-related AE: 0
G1
  Alanine aminotransferase increased, number of patients with treatment-related AE: 0
  Aspartate aminotransferase increased, number of patients with treatment-related AE: 0
  Blood bilirubin increased, number of patients with treatment-related AE: 0
  Cheilitis, number of patients with treatment-related AE: 2
  Conjunctivitis, number of patients with treatment-related AE: 0
  Decreased appetite, number of patients with treatment-related AE: 0
  Diarrhea, number of patients with treatment-related AE: 2
  Dry skin, number of patients with treatment-related AE: 1
  ECG QT prolonged, number of patients with treatment-related AE: 1
  Edema, number of patients with treatment-related AE: 0
  Fatigue, number of patients with treatment-related AE: 0
  Hematuria, number of patients with treatment-related AE: 0
  Hypertrichosis, number of patients with treatment-related AE: 0
  Leukopenia, number of patients with treatment-related AE: 0
  Nausea, number of patients with treatment-related AE: 0
  Palmar–plantar erythrodysesthesia, number of patients with treatment-related AE: 1
  Paronychia, number of patients with treatment-related AE: 0
  Proteinuria, number of patients with treatment-related AE: 0
  Rash, number of patients with treatment-related AE: 2
  Skin fissures, number of patients with treatment-related AE: 0
  Stomatitis, number of patients with treatment-related AE: 1
  Weight decreased, number of patients with treatment-related AE: 0
G2
  Alanine aminotransferase increased, number of patients with treatment-related AE: 0
  Aspartate aminotransferase increased, number of patients with treatment-related AE: 0
  Blood bilirubin increased, number of patients with treatment-related AE: 0
  Cheilitis, number of patients with treatment-related AE: 0
  Conjunctivitis, number of patients with treatment-related AE: 0
  Decreased appetite, number of patients with treatment-related AE: 0
  Diarrhea, number of patients with treatment-related AE: 0
  Dry skin, number of patients with treatment-related AE: 1
  ECG QT prolonged, number of patients with treatment-related AE: 1
  Edema, number of patients with treatment-related AE: 0
  Fatigue, number of patients with treatment-related AE: 0
  Hematuria, number of patients with treatment-related AE: 0
  Hypertrichosis, number of patients with treatment-related AE: 0
  Leukopenia, number of patients with treatment-related AE: 0
  Nausea, number of patients with treatment-related AE: 0
  Palmar–plantar erythrodysesthesia, number of patients with treatment-related AE: 0
  Paronychia, number of patients with treatment-related AE: 1
  Proteinuria, number of patients with treatment-related AE: 0
  Rash, number of patients with treatment-related AE: 1
  Skin fissures, number of patients with treatment-related AE: 0
  Stomatitis, number of patients with treatment-related AE: 0
  Weight decreased, number of patients with treatment-related AE: 0
G3
  Alanine aminotransferase increased, number of patients with treatment-related AE: 0
  Aspartate aminotransferase increased, number of patients with treatment-related AE: 0
  Blood bilirubin increased, number of patients with treatment-related AE: 0
  Cheilitis, number of patients with treatment-related AE: 0
  Conjunctivitis, number of patients with treatment-related AE: 0
  Decreased appetite, number of patients with treatment-related AE: 0
  Diarrhea, number of patients with treatment-related AE: 0
  Dry skin, number of patients with treatment-related AE: 0
  ECG QT prolonged, number of patients with treatment-related AE: 0
  Edema, number of patients with treatment-related AE: 0
  Fatigue, number of patients with treatment-related AE: 0
  Hematuria, number of patients with treatment-related AE: 0
  Hypertrichosis, number of patients with treatment-related AE: 0
  Leukopenia, number of patients with treatment-related AE: 0

From publication PMC3523469 (Investigational New Drugs, 2012)
